Assay results reported in patent publication US8562953B2, “Dendritic polymers and magnetic resonance imaging contrast agent employing the same” (Industrial Technology Research Institute, priority 2007, dated 2013).

Assay: T1 relaxation measurements (water proton relaxivity, 20 MHz NMR spectrometer, inversion-recovery)
Assay type: physicochemical
Conditions: Bo = 0.47 T, per Gd^3+ ion
Method: T1 Relaxation Measurements […] […] All of the three generations of cyclosiloxane-core dendrimers (polymer (A)˜(C)) were analyzed and compared with a commercial contrast agent, namely, Magnevist. […] 1, polymers (A)˜(D) for Magnetic resonance imaging (MRI) were developed. It consists of paramagnetic gadolinium ions chelated to DTPA/benzyl-DTPA molecules which in turn were attached to the peripheral of the cyclic dendritic structure.

Relaxivity/Gd^3+ ion (ionic) r1: 4.2 (mM · s) − 1
Structure (SMILES): CNC[C@H](O)[C@@H](O)[C@H](O)[C@H](O)CO.CNC[C@H](O)[C@@H](O)[C@H](O)[C@H](O)CO.O=C([O-])CN(CCN(CC(=O)[O-])CC(=O)O)CCN(CC(=O)[O-])CC(=O)O.[Gd+3] [Magnevist ™]
